Some results are limits rather than exact numbers.

From ChEMBL document CHEMBL5052843, “Inhibitors of apol1 and methods of using same” (2020) come the findings set out here.

Assay [1] concerns Trypanosoma brucei brucei. As to the kind of experiment: Antitrypanosomal activity against Trypanosoma brucei brucei assessed as trypanosome lysis using recombinant APOL1 protein G1 variant and measured by Alamar blue based fluorescene assay. Type of assay: functional, organism-based. For orientation: Alamar Blue is a resazurin reagent that responds to reducing activity.
Another assay concerns the target Apolipoprotein L1 (Homo sapiens, UniProt O14791). As to the kind of experiment: Inhibition of APOL1 G1 variant in human HEK293-T-REx cells measured by Thallium assay. Format: cell-based.

As to `COc1ccc(-c2[nH]c3ccccc3c2CCC(=O)N[C@@H]2C(=O)NC[C@H]2O)cc1`, the IC50 (in assay [1]; on Apolipoprotein L1) was less than 250 nM throughout.

Take `Cc1cc(-c2[nH]c3ccccc3c2CCC(=O)N[C@@H]2C(=O)NC[C@H]2O)ccc1F`: the concentration for half-maximal inhibition (IC50) (in assay [1]; against Apolipoprotein L1) was less than 250 nM in each case.

On to `O=C(CCc1c(-c2ccc(OC(F)(F)F)cc2)[nH]c2ccccc12)N[C@@H]1C(=O)NC[C@H]1O`, for which the IC50 (in assay [1]; on Apolipoprotein L1) was less than 250 nM throughout.

Turning to `O=C(CCc1c(-c2ccc(C(F)(F)F)cc2)[nH]c2ccccc12)N[C@@H]1C(=O)NC[C@H]1O`, the IC50 (in assay [1]; against Apolipoprotein L1) was less than 250 nM each time.

For `O=C(CCc1c(-c2ccccc2)[nH]c2cccc(F)c12)N[C@@H]1C(=O)NC[C@H]1O`, the IC50 was 250 nM in assay [1] and less than 250 nM against Apolipoprotein L1.

As to `Cc1ccc(-c2[nH]c3ccccc3c2CCC(=O)N[C@@H]2C(=O)NC[C@H]2O)cc1F`, the IC50 (in assay [1]; at Apolipoprotein L1) was less than 250 nM throughout.

As to `Cc1ccc(-c2[nH]c3ccccc3c2CCC(=O)N[C@@H]2C(=O)NC[C@H]2O)c(F)c1`, the concentration for half-maximal inhibition (IC50) (in assay [1]; at Apolipoprotein L1) was less than 250 nM throughout.

With `N#Cc1ccc(-c2[nH]c3ccccc3c2CCC(=O)N[C@@H]2C(=O)NC[C@H]2O)cc1`, the IC50 (in assay [1]; at Apolipoprotein L1) was less than 250 nM in each case.

Regarding `O=C(CCc1c(-c2ccc(Cl)cc2)[nH]c2ccccc12)N[C@@H]1C(=O)NC[C@H]1O`, the IC50 (in assay [1]; against Apolipoprotein L1) was less than 250 nM each time.

For `O=C(CCc1c(-c2cc(F)cc(F)c2)[nH]c2ccccc12)N[C@@H]1C(=O)NC[C@H]1O`, the IC50 (in assay [1]; at Apolipoprotein L1) was 250 nM each time.

Regarding `Cc1ccc(-c2[nH]c3ccccc3c2CCC(=O)N[C@@H]2C(=O)NC[C@H]2O)cc1`, the IC50 (in assay [1]; against Apolipoprotein L1) was less than 250 nM each time.

On to `O=C(CCc1c(-c2ccc(F)c(F)c2)[nH]c2ccccc12)N[C@@H]1C(=O)NC[C@H]1O`, for which the IC50 (in assay [1]; at Apolipoprotein L1) was less than 250 nM in each case.

Consider `O=C(CCc1c(-c2ccc(C(F)F)cc2)[nH]c2ccccc12)N[C@@H]1C(=O)NC[C@H]1O`, for which the IC50 (in assay [1]; at Apolipoprotein L1) was less than 250 nM throughout.

On to `O=C(CCc1c(-c2ccc(Cl)c(F)c2)[nH]c2ccccc12)N[C@@H]1C(=O)NC[C@H]1O`, for which the 50% inhibitory concentration (IC50) (in assay [1]; against Apolipoprotein L1) was less than 250 nM throughout.

Take `O=C(CCc1c(-c2ccc(F)cc2)[nH]c2c(F)cc(F)cc12)N[C@@H]1C(=O)NC[C@H]1O` [INAXAPLIN]: the IC50 (in assay [1]; against Apolipoprotein L1) was less than 250 nM in each case.

In general, IC50 refers to the concentration that inhibits the measured activity by half.
